Reference: patent publication US20170190671A1, “BIS(ARYL)CATECHOL DERIVATIVES AS HERBICIDES” (E I DU PONT DE NEMOURS AND COMPANY, priority 2014, published 2017)

Columns and labels:
Assay type in all cases: in vivo
[1] = system: chickweed (common chickweed, Stellaria media); assay: Test C postemergence; conditions: Stellaria media, post-emergence, Postemergence, scale 0 to 100, read-out: Plant response rating, Chickweed
How it was run: (§1)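 Greenhouse test, preemergence on seeded soil or postemergence on 1- to 4-leaf plants. Response is a visual 0-100 rating versus controls, taken 13-15 days after treatment.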

corn (Zea mays) = assay: Test C postemergence; conditions: Zea mays, post-emergence, 336 h, Postemergence, scale 0 to 100
How it was run: as §1

[2] = system: oilseed rape (Brassica napus); assay: Test C postemergence; conditions: Brassica napus, post-emergence, Postemergence, scale 0 to 100, read-out: Plant response rating, Oilseed Rape
How it was run: as §1

[3] = system: barnyardgrass (Echinochloa crus-galli); assay: Test C postemergence; conditions: Echinochloa crus-galli, post-emergence, Postemergence, scale 0 to 100, read-out: Plant response rating, Barnyardgrass
How it was run: as §1

[4] = system: yellow nutsedge (Cyperus esculentus); assay: Test C postemergence; conditions: Cyperus, post-emergence, 336 h, Postemergence, scale 0 to 100, read-out: Plant response rating, Nutsedge, Yellow
How it was run: as §1

[5] = system: morningglory (Ipomoea coccinea); assay: Test C postemergence; conditions: Ipomoea, post-emergence, 336 h, Postemergence, scale 0 to 100, read-out: Plant response rating, Morningglory
How it was run: as §1

[6] = system: pigweed (Amaranthus retroflexus); assay: Test C postemergence; conditions: Amaranthus retroflexus, post-emergence, 336 h, Postemergence, scale 0 to 100, read-out: Plant response rating, Pigweed
How it was run: as §1

[7] = system: johnsongrass (Sorghum halepense); assay: Test C postemergence; conditions: Sorghum halepense, post-emergence, 336 h, Postemergence, scale 0 to 100, read-out: Plant response rating, Johnsongrass
How it was run: as §1

[8] = system: lambsquarters (Chenopodium album); assay: Test C postemergence; conditions: Chenopodium album, post-emergence, 336 h, Postemergence, scale 0 to 100, read-out: Plant response rating, Lambsquarters
How it was run: as §1

[9] = system: galium (catchweed bedstraw, Galium aparine); assay: Test C postemergence; conditions: Galium, post-emergence, 336 h, Postemergence, scale 0 to 100, read-out: Plant response rating, Galium
How it was run: as §1

[10] = system: ragweed (common ragweed, Ambrosia elatior); assay: Test C postemergence; conditions: Ambrosia artemisiifolia, post-emergence, 336 h, Postemergence, scale 0 to 100, read-out: Plant response rating, Ragweed
How it was run: as §1

soybean (Glycine max) = assay: Test C postemergence; conditions: Glycine max, post-emergence, Postemergence, scale 0 to 100, read-out: Plant response rating, Soybean
How it was run: as §1

[11] = system: blackgrass (Alopecurus myosuroides); assay: Test C postemergence; conditions: Alopecurus myosuroides, post-emergence, 336 h, Postemergence, scale 0 to 100, read-out: Plant response rating, Blackgrass
How it was run: as §1

[12] = system: waterhemp (common waterhemp, Amaranthus rudis); assay: Test C postemergence; conditions: Amaranthus tuberculatus, post-emergence, Postemergence, scale 0 to 100, read-out: Plant response rating, Waterhemp
How it was run: as §1

[13] = system: large (Lg) crabgrass (Digitaria sanguinalis); assay: Test C postemergence; conditions: Digitaria sanguinalis, post-emergence, 336 h, Postemergence, scale 0 to 100, read-out: Plant response rating, Crabgrass, Large
How it was run: as §1

kochia (Kochia scoparia) = assay: Test C postemergence; conditions: Bassia scoparia, post-emergence, Postemergence, scale 0 to 100, read-out: Plant response rating, Kochia
How it was run: as §1

[14] = system: winter wheat (Triticum aestivum); assay: Test C postemergence; conditions: Triticum aestivum, post-emergence, 336 h, Postemergence, scale 0 to 100, read-out: Plant response rating, Wheat
How it was run: as §1

[15] = system: giant foxtail (Setaria faberii); assay: Test C postemergence; conditions: Setaria faberi, post-emergence, 336 h, Postemergence, scale 0 to 100, read-out: Plant response rating, Foxtail, Giant
How it was run: as §1

[16] = system: velvetleaf (Abutilon theophrasti); assay: Test C postemergence; conditions: Abutilon theophrasti, post-emergence, Postemergence, scale 0 to 100, read-out: Plant response rating, Velvetleaf
How it was run: as §1

[17] = system: morningglory (Ipomoea coccinea); assay: Test C preemergence; conditions: Ipomoea, pre-emergence, 336 h, scale 0 to 100, read-out: Plant response rating, Morningglory
How it was run: as §1

[18] = system: pigweed (Amaranthus retroflexus); assay: Test C preemergence; conditions: Amaranthus retroflexus, pre-emergence, 336 h, scale 0 to 100, read-out: Plant response rating, Pigweed
How it was run: as §1

[19] = system: johnsongrass (Sorghum halepense); assay: Test C preemergence; conditions: Sorghum halepense, pre-emergence, 336 h, scale 0 to 100, read-out: Plant response rating, Johnsongrass
How it was run: as §1

For `Fc1cnc(Oc2c(F)ccc(F)c2Oc2ncc(F)cn2)nc1` [Compound 29, 2,2′-[(3,6-difluoro-1,2-phenylene)bis(oxy)]bis[5-fluoropyrimidine]], the pest or weed control at 16 g/ha ([1]; 16 g ai/ha) was 45%, the pest or weed control at 31 g/ha ([1]; 31 g ai/ha) was 50% and the pest or weed control at 62 g/ha ([1]; 62 g ai/ha) was 50%. The pest or weed control at 125 g/ha ([1]; 125 g ai/ha) was 65%, the Corn plant response rating (crop injury, 0 = no effect, 100 = complete kill) at 16 g/ha (corn (Zea mays); 16 g ai/ha) was 0% and the Corn plant response rating (crop injury, 0 = no effect, 100 = complete kill) at 31 g/ha (corn (Zea mays); 31 g ai/ha) was 0%. It also gave a Corn plant response rating (crop injury, 0 = no effect, 100 = complete kill) at 62 g/ha (corn (Zea mays); 62 g ai/ha) of 5%, a Corn plant response rating (crop injury, 0 = no effect, 100 = complete kill) at 125 g/ha (corn (Zea mays); 125 g ai/ha) of 5% and a plant injury at 31 g/ha ([2]; 31 g ai/ha) of 60%. It also gave a plant injury at 62 g/ha ([2]; 62 g ai/ha) of 70%, a plant injury at 125 g/ha ([2]; 125 g ai/ha) of 90% and a pest or weed control at 16 g/ha ([3]; 16 g ai/ha) of 0%. For the same molecule, the pest or weed control at 31 g/ha ([3]; 31 g ai/ha) was 0%, the pest or weed control at 62 g/ha ([3]; 62 g ai/ha) was 5% and the pest or weed control at 125 g/ha ([3]; 125 g ai/ha) was 15%. For the same molecule, the pest or weed control at 31 g/ha ([4]; 31 g ai/ha) was 0%, the pest or weed control at 62 g/ha ([4]; 62 g ai/ha) was 0% and the pest or weed control at 125 g/ha ([4]; 125 g ai/ha) was 0%. The pest or weed control at 31 g/ha ([5]; 31 g ai/ha) was 75%, the pest or weed control at 62 g/ha ([5]; 62 g ai/ha) was 90% and the pest or weed control at 125 g/ha ([5]; 125 g ai/ha) was 95%. It also gave a pest or weed control at 31 g/ha ([6]; 31 g ai/ha) of 90%, a pest or weed control at 62 g/ha ([6]; 62 g ai/ha) of 95% and a pest or weed control at 125 g/ha ([6]; 125 g ai/ha) of 90%. It also gave a pest or weed control at 16 g/ha ([7]; 16 g ai/ha) of 0%, a pest or weed control at 31 g/ha ([7]; 31 g ai/ha) of 0% and a pest or weed control at 62 g/ha ([7]; 62 g ai/ha) of 20%. The pest or weed control at 125 g/ha ([7]; 125 g ai/ha) was 20%, the pest or weed control at 16 g/ha ([8]; 16 g ai/ha) was 75% and the pest or weed control at 31 g/ha ([8]; 31 g ai/ha) was 80%. The pest or weed control at 62 g/ha ([8]; 62 g ai/ha) was 85%, the pest or weed control at 125 g/ha ([8]; 125 g ai/ha) was 85% and the pest or weed control at 16 g/ha ([9]; 16 g ai/ha) was 85%. For the same molecule, the pest or weed control at 31 g/ha ([9]; 31 g ai/ha) was 85%, the pest or weed control at 62 g/ha ([9]; 62 g ai/ha) was 90% and the pest or weed control at 125 g/ha ([9]; 125 g ai/ha) was 98%. It also gave a pest or weed control at 31 g/ha ([10]; 31 g ai/ha) of 70%, a pest or weed control at 62 g/ha ([10]; 62 g ai/ha) of 75% and a pest or weed control at 125 g/ha ([10]; 125 g ai/ha) of 80%. The plant injury at 31 g/ha (soybean (Glycine max); 31 g ai/ha) was 70%, the plant injury at 62 g/ha (soybean (Glycine max); 62 g ai/ha) was 75% and the plant injury at 125 g/ha (soybean (Glycine max); 125 g ai/ha) was 85%. For the same molecule, the pest or weed control at 16 g/ha ([11]; 16 g ai/ha) was 0%, the pest or weed control at 31 g/ha ([11]; 31 g ai/ha) was 0% and the pest or weed control at 62 g/ha ([11]; 62 g ai/ha) was 5%. It also gave a pest or weed control at 125 g/ha ([11]; 125 g ai/ha) of 20%, a pest or weed control at 31 g/ha ([12]; 31 g ai/ha) of 85% and a pest or weed control at 62 g/ha ([12]; 62 g ai/ha) of 90%. It also gave a pest or weed control at 125 g/ha ([12]; 125 g ai/ha) of 95%, a pest or weed control at 16 g/ha ([13]; 16 g ai/ha) of 0% and a pest or weed control at 31 g/ha ([13]; 31 g ai/ha) of 0%. For the same molecule, the pest or weed control at 62 g/ha ([13]; 62 g ai/ha) was 5%, the pest or weed control at 125 g/ha ([13]; 125 g ai/ha) was 10% and the pest or weed control at 16 g/ha (kochia (Kochia scoparia); 16 g ai/ha) was 80%. For the same molecule, the pest or weed control at 31 g/ha (kochia (Kochia scoparia); 31 g ai/ha) was 90%, the pest or weed control at 62 g/ha (kochia (Kochia scoparia); 62 g ai/ha) was 90% and the pest or weed control at 125 g/ha (kochia (Kochia scoparia); 125 g ai/ha) was 95%. For the same molecule, the plant injury at 31 g/ha ([14]; 31 g ai/ha) was 0%, the plant injury at 62 g/ha ([14]; 62 g ai/ha) was 0% and the plant injury at 125 g/ha ([14]; 125 g ai/ha) was 0%. For the same molecule, the pest or weed control at 16 g/ha ([15]; 16 g ai/ha) was 0%, the pest or weed control at 31 g/ha ([15]; 31 g ai/ha) was 0% and the pest or weed control at 62 g/ha ([15]; 62 g ai/ha) was 5%. It also gave a pest or weed control at 125 g/ha ([15]; 125 g ai/ha) of 20%, a pest or weed control at 31 g/ha ([16]; 31 g ai/ha) of 75% and a pest or weed control at 62 g/ha ([16]; 62 g ai/ha) of 75%. The pest or weed control at 125 g/ha ([16]; 125 g ai/ha) was 80%, the pest or weed control at 31 g/ha ([17]; 31 g ai/ha, preemergence) was 75% and the pest or weed control at 62 g/ha ([17]; 62 g ai/ha, preemergence) was 80%. The pest or weed control at 125 g/ha ([17]; 125 g ai/ha, preemergence) was 85%, the pest or weed control at 16 g/ha ([17]; Preemergence, 16 g ai/ha) was 55% and the pest or weed control at 31 g/ha ([18]; 31 g ai/ha, preemergence) was 100%. It also gave a pest or weed control at 62 g/ha ([18]; 62 g ai/ha, preemergence) of 100%, a pest or weed control at 125 g/ha ([18]; 125 g ai/ha, preemergence) of 100% and a pest or weed control at 16 g/ha ([18]; Preemergence, 16 g ai/ha) of 98%. The pest or weed control at 31 g/ha ([19]; 31 g ai/ha, preemergence) was 70%, the pest or weed control at 62 g/ha ([19]; 62 g ai/ha, preemergence) was 80% and the pest or weed control at 125 g/ha ([19]; 125 g ai/ha, preemergence) was 85%. For the same molecule, the pest or weed control at 16 g/ha ([19]; Preemergence, 16 g ai/ha) was 55%.
